Measured values reported in patent US20240181006A1, “POLYPEPTIDES BINDING ADAMTS5, MMP13 AND AGGRECAN” (Merck Patent GmbH, priority 2017, published 2024).

How the values were obtained:
human cartilage explants = assay: human cartilage explant assay, IL-1β + OSM, GAG release; assay type: cell-based; settings: reference set at 100%, FIG. 4
Method: FIG. 4: Efficacy of polypeptide 949 in a human cartilage explant assay.
Polypeptide 949 (M-A-C-C: 62C02-2F03-114F08-114F08) was tested in human cartilage explant assays for inhibition of cartilage degradation. Briefly, the polypeptide was incubated with human cartilage explants that were cultured 7 days with IL-1β+Oncostatin M (OSM). Within 7 days, degradation of primarily Aggrecan ensues, whereas Collagen degradation only occurs after about two weeks, i.e., after termination of the experiments described here. At the end of the experiment, the GAG (mainly derived from Aggrecan) which was released from the degrading cartilage into the culture supernatant was quantified. The IC50 was calculated on the basis of the negative control level (=GAG release from explants without additional stimulus) and the IL-1 β+OSM level, as measure for maximal GAG loss. GAG is shown as GAG release (in μg) per mg cartilage of each individual explant.

[1] = tested on: bovine cartilage explants; assay: bovine cartilage explant assay, IL-1α, GAG release (polypeptide 949); assay type: cell-based; settings: 5 days with IL-1α, FIG. 3
Method: FIG. 3: Efficacy of polypeptide 949 (“NB949”) in bovine cartilage explant assay.
In short, the polypeptide was incubated with bovine cartilage explants that were cultured 5 days with IL-1α to induce an OA-like cartilage degradation process. Within 5 days, degradation of primarily Aggrecan ensues, whereas Collagen degradation only occurs after about two weeks, i.e., after termination of the experiments described here. At the end of the experiment, the GAG (mainly derived from Aggrecan) which was released from the degrading cartilage into the culture supernatant was quantified.

Compound: CC(C)(Cc1ccc(F)cc1)NC(=O)[C@H](CCC(=O)O)NC(=O)c1ccc(-c2ccccc2)cc1 [AGG-523]
- inhibition of stimulated GAG release in human cartilage explant assay (human cartilage explants): fully inhibits
- inhibition of bovine cartilage degradation (IL-1α stimulated GAG release) [1]: fully inhibits
